Reference: US8697731B2, “Derivatives of 2-pyridin-2-yl-pyrazol-3(2H)-one, preparation and therapeutic use thereof” (Sanofi, priority 2008, dated 2014)

Key:
[1] = system: VEGF; assay: Measurement of the secretion of VEGF by Hep3B hepatocytes (ELISA); format: cell-based; conditions: Homo sapiens, supernatant of Hep3B cells, 18 hours under normoxia, concentration that produces 50% of the maximum response of this same compound
Experimental: (§1) The test is an ELISA test for measuring VEGF and EPO in the supernatant of Hep3B cells treated under hypoxia or with deferoxamine as controls or with the potential HIF activators. The test was adapted to a 96-well plate, allowing greater compound screening capacity.
(§2) 2.3.1 Experiment Plan • 1) Inoculation of the cells on D0 • 2) Adherence for 6 hours under normoxia • 3) Preparation and addition of the products (Biomek 2000 and FX) • 4) Incubation under normoxia for 18 hours • 5) EPO and VEGF assay in the supernatant on D+1
(§3) The cells are subcultured into 100 μl of culture medium (10% FCS) in black, opaque-bottomed 96-well plates (reference Costar 3916) at 30000 cells/well, with Multidrop.
(§4) The test products are prepared at 10^−2M in 100% DMSO and then diluted to […] in medium containing 0.1% FCS (6 μl in 194 μl of MEM). 200 μl of each compound are deposited in column 12 of a 96-well plate. Dilution ranges from 3×10^−4M to 3×10^−8M are prepared with Biomek 2000 (programme: range of 9 points in series). 100 μl of MEM 0.1% FCS and Deferoxamine 5×10^−3M are added as controls to column 3 and, respectively, to wells A,B,C,D & wells E,F,G,H
(§5) The medium of the cells inoculated the day before into 96-well plates is changed for 90 μl of medium containing 0.1% FCS and 10 μl are distributed with FX 96 from the 96-well DL plates to the cell plates.
(§6) The cell plates thus treated are placed for 18 hours in an incubator at 37° C. (ambient O2, 6% CO2).
(§7) The supernatants (80 μl) of the Hep3B cells in the 96-well plates treated with the potential HIF activators are recovered with a multichannel pipette for simultaneous assay of the VEGF and the EPO by ELISA according to the supplier's instructions (Kit EPO Mesoscale (ref K15122B-2)).
(§8) The activating activity of a compound with respect to HIF is given by the concentration that produces 50% of the maximum response of this same compound in Table IV.

[2] = system: HIF1-alpha; assay: Measurement of the stabilization of HIF1-alpha in HEKEA cells (beta-galactosidase complementation); format: cell-based, human; conditions: HEKEA_HIF1-alphaPLBL cells, 6 hours under normoxia, luminescence; molar concentration that produces 50% of the maximum response of this same compound
Description: Furthermore, a subject of the invention is also a uniform test for the direct measurement by beta-galactosidase complementation of the amount of HIF1-alpha protein in the nucleus of cells, preferably HEK cells, after treating the said cells with one or more test compounds, which consists in: • (a) inoculating, preferably in 384-well plates, the said cells in a suitable culture medium, preferably 1% foetal calf serum (abbreviated as FCS); • (b) adding the test compound(s) at a suitable concentration in a suitable solvent to the cells previously inoculated in the said culture medium; preferably the test compounds are diluted in 0.1% FCS; • (c) incubating the said cells thus prepared in an indicator at about 37° C., advantageously for about 6 hours; • (d) lysing the cells with a lysis buffer containing a chemiluminescent substrate for beta-galactosidase; • (e) incubating in the absence of light, before reading and measuring the luminescence, which is a function of the beta-galactosidase activity.
The test is a cell test based on the principle of enzyme complementation, the enzyme used herein being beta-galactosidase. HEKEA cells are HEK cells stably expressing, and restricted in their nucleus, mutant beta-galactosidase (omega fragment, also known as EA) (line sold by DiscoverX). This construct makes it possible to obtain beta-galactosidase activity only when the protein comprising the Prolabel complementation fragment has migrated into the nucleus.
The protein of interest comprising the Prolabel fragment is in this case an HIF1-alpha or HIF1-alpha mutated at the two prolines 402 and 564 replaced with alanines, is C-terminal fused via molecular biology (DiscoverX vector sold by Clontech) with the small complementation peptide fragment (Prolabel or ED, about 4 kDa). The vector coding for the chimeric protein HIF1-alpha_Prolabel is then transfected into HEKEA cells to obtain stable clones (HEKEA_HIF1-alphaPLBL).
The amount of C-terminal Prolabel-“labelled” HIF1-alpha protein obtained after treating the cells to hypoxia or compounds that are potentially HIF activators is measured by adding to the cells a lysis buffer containing a chemiluminescent substrate for beta-galactosidase.
The measurement of the beta-galactosidase activity will be proportional to the amount of Prolabel and thus of HIF1-alpha that has migrated into the nucleus of the cells.
1.3.1 Experiment Plan • 1) Inoculation of the cells on D0 • 2) Adherence for 24 hours under normoxia • 3) Preparation and addition of the products (Biomek 2000 and FX) on D+1 • 4) Incubation under normoxia for 6 hours • 5) Reading of the plates (by luminescence)
The cells are inoculated with Multidrop in white, opaque-bottomed 384-well plates (Greiner ref 3704), in 30 μl of culture medium (1% FCS) a 10000 cells/well (cell plate).
The test products are prepared at 3×10^−2 M in 100% DMSO and then diluted to 3×10^−4 M in medium containing 0.1% FCS (10 μl in 990 μl of MEM). They are then deposited by hand into column 12 of a round-bottomed 96-well plate (200 μl of each compound) known as the dilution plate (dl). The complete DL plate of 3×10^−4 M to 10^−9 M is then prepared with Biomek 2000 (programme: range of 10 points in series). For the references and controls, 100 μl of DMEM containing 0.1% FCS are added to column 1, 100 μl of Deferoxamine 10^−3M to column 2, wells A B C D and 100 μl of Deferoxamine 5×10^−3 M to column 2, wells E F G H.
3.3 μL are taken from the DL plate by pipetting with a Biomek FX 96 and placed in horizontal duplicate (columns 1 to 24) in each 384-well cell plate (HEKEA_HIF1-alphaPLBL cell plate).
The cells are then placed for 6 hours in an incubator at 37° C. (ambient O2, 6% CO2).
The kit used is the Prolabel chemiluminescent kit (Ref 93-0001 DiscoverX). […]

[3] = system: EPO; assay: Measurement of the secretion of EPO by Hep3B hepatocytes (ELISA); format: cell-based; conditions: Homo sapiens, supernatant of Hep3B cells, 18 hours under normoxia, concentration that produces 50% of the maximum response of this same compound
Experimental: as §1, §2, §3, §4, §5, §6, §7, §8

Structure (SMILES) | EC50 [1] [nM] | melting point [°C] | EC50 [2] [nM] | EC50 [3] [nM]
O=c1c2c([nH]n1-c1ccccn1)CSC2 [Compound 1, 2-pyridin-2-yl-1,2,4,6-tetrahydro-3H-thieno[3,4-c]pyrazol-3-one] | 3000 | 152 | 8800 | 2900
CCN(c1ccccc1)S(=O)(=O)c1ccc(-n2[nH]c3c(c2=O)CSC3)nc1 [Compound 9, N-ethyl-6-(3-oxo-4,6-dihydro-1H-thieno[3,4-c]pyrazol-2(3H)-yl)-N-phenylpyridine-3-sulfonamide] | 660 | 208 | 1400 | 700
CCN(c1ccccc1)S(=O)(=O)c1ccc(-n2[nH]c3c(c2=O)CSCC3)nc1 [Compound 13, N-ethyl-6-(3-oxo-1,4,6,7-tetrahydrothiopyrano[4,3-c]pyrazol-2(3H)-yl)-N-phenylpyridine-3-sulfonamide] | 1000 | 176 | 5200 | 900
O=c1c2c([nH]n1-c1ccc(S(=O)(=O)N3CCCC3)cn1)CSC2 [Compound 15, 2-[5-(pyrrolidin-1-ylsulfonyl)pyridin-2-yl]-1,2,4,6-tetrahydro-3H-thieno[3,4-c]pyrazol-3-one] | 3000 | 152 | 16000 | 2800
O=c1c2c([nH]n1-c1ccc(S(=O)(=O)NC3CC3)cn1)CSC2 [Compound 16, N-cyclopropyl-6-(3-oxo-4,6-dihydro-1H-thieno[3,4-c]pyrazol-2(3H)-yl)pyridine-3-sulfonamide] | 3000 | 262 | 8600 | 3500
CC(C)NS(=O)(=O)c1ccc(-n2[nH]c3c(c2=O)CSC3)nc1 [Compound 17, 6-(3-oxo-4,6-dihydro-1H-thieno[3,4-c]pyrazol-2(3H)-yl)-N-(propan-2-yl)pyridine-3-sulfonamide] | 2900 | 258 | 10000 | 2900
CC(C)(C)NS(=O)(=O)c1ccc(-n2[nH]c3c(c2=O)CSC3)nc1 [Compound 18, N-tert-butyl-6-(3-oxo-4,6-dihydro-1H-thieno[3,4-c]pyrazol-2(3H)-yl)pyridine-3-sulfonamide] | 400 | 257 | 4400 | 500
O=c1c2c([nH]n1-c1ccc(S(=O)(=O)NCc3ccco3)cn1)CSC2 [Compound 19, N-(furan-2-ylmethyl)-6-(3-oxo-4,6-dihydro-1H-thieno[3,4-c]pyrazol-2(3H)-yl)pyridine-3-sulfonamide] | 2400 | 238 | 5500 | 2400
O=c1c2c([nH]n1-c1ccc(S(=O)(=O)NC3CCCC3)cn1)CSC2 [Compound 20, N-cyclopentyl-6-(3-oxo-4,6-dihydro-1H-thieno[3,4-c]pyrazol-2(3H)-yl)pyridine-3-sulfonamide] | 900 | > 260 | 3400 | 1000
CN(c1ccccn1)S(=O)(=O)c1ccc(-n2[nH]c3c(c2=O)CSC3)nc1 [Compound 21, N-methyl-6-(3-oxo-4,6-dihydro-1H-thieno[3,4-c]pyrazol-2(3H)-yl)-N-pyridin-2-ylpyridine-3-sulfonamide] | 2400 | 226 | 8700 | 1400
CCN(c1ccccc1)S(=O)(=O)c1ccc(-n2[nH]c3c(c2=O)SCCC3)nc1 [Compound 24, N-ethyl-6-(3-oxo-3,5,6,7-tetrahydrothiopyrano[3,2-c]pyrazol-2(1H)-yl)-N-phenylpyridine-3-sulfonamide] | 500 | 198 | 3000 | 500
CCN(c1ccccc1)S(=O)(=O)c1ccc(-n2[nH]c3c(c2=O)COCC3)nc1 [Compound 25, N-ethyl-6-(3-oxo-1,4,6,7-tetrahydropyrano[4,3-c]pyrazol-2(3H)-yl)-N-phenylpyridine-3-sulfonamide] | 2500 | 164 | 3300 | 2400
CC(C)(C)OC(=O)c1ccc(-n2[nH]c3c(c2=O)CSC3)nc1 [Compound 30, tert-butyl 6-(3-oxo-4,6-dihydro-1H-thieno[3,4-c]pyrazol-2(3H)-yl)pyridine-3-carboxylate] | 1800 | – | 650 | 1500
CCN(C(C)(C)C)S(=O)(=O)c1ccc(-n2nc3c(c2O)CSC3)nc1 [Compound 32, sodium 2-{5-[tert-butyl(ethyl)sulfamoyl]pyridin-2-yl}-2,6-dihydro-4H-thieno[3,4-c]pyrazol-3-olate] | 3200 | – | 1300 | 2600
CCN(c1ccccc1)S(=O)(=O)c1ccc(-n2nc3c(c2O)N(Cc2ccccc2)C(=O)CC3)nc1 [Compound 35, sodium 4-benzyl-2-{5-[ethyl(phenyl)sulfamoyl]pyridin-2-yl}-5-oxo-4,5,6,7-tetrahydro-2H-pyrazolo[4,3-b]pyridin-3-olate] | 1100 | – | 2500 | 1700
CN(C(C)(C)C)S(=O)(=O)c1ccc(-n2nc3c(c2O)CSC3)nc1 [Compound 36, sodium 2-{5-[tert-butyl(methyl)sulfamoyl]pyridin-2-yl}-2,6-dihydro-4H-thieno[3,4-c]pyrazol-3-olate] | 2000 | – | 1200 | 1600
COc1ccnc(-n2[nH]c3c(c2=O)CSC3)c1 [Compound 59, 2-(4-methoxypyridin-2-yl)-1,2,4,6-tetrahydro-3H-thieno[3,4-c]pyrazol-3-one] | 3100 | 254 | – | 2600
CCc1ccnc(-n2[nH]c3c(c2=O)CSC3)c1 [Compound 61, sodium 2-(4-ethylpyridin-2-yl)-2,6-dihydro-4H-thieno[3,4-c]pyrazol-3-olate] | 2800 | – | 1900 | 2200
